# Assay results published in patent US20140227201A1, “Antimicrobial Gel Formulations” (NovaBay Pharmaceuticals, Inc., priority 2013, published 2014).
# Assay: Amount of compound an AA-1 polymer formulation can hold
# Format: physicochemical
# Settings: by weight
# Source text: The formulations may be made by mixing the N-halogenated or N,N-dihalogenated amine compound with the polymer using water. Water/oil emulsions, hydrating agents, wetting agents, surfactants, and the like may also be used. Concentrations of N-halogenated or N,N-dihalogenated amine compound may range from about 0.01% to about 5.0% (by weight). Concentrations of polymer may be from about 0.01% to about 10% (by weight) in water. For example, in certain implementations, the concentration of N-halogenated or N,N-dihalogenated compounds may range from about 0.1% to about 2.0% (by weight). Higher concentrations of polymer may be required to formulate higher concentrations of the N-halogenated or N,N-dihalogenated amine compound. For example, a 1% AA-1 formulation can hold up to about 2% N,N-dichloro-2,2-dimethyltaurine, whereas a 2% AA-1 formulation can hold up to about 3.5% of the same compound. These ratios may differ as different polymers and N-halogenated or N,N-dihalogenated amine compound are combined in a given formulation.
compound,measurement,setting,value
"CC(C)(CS(=O)(=O)O)N(Cl)Cl [NVC-422, N,N-dichloro-2,2-dimethyltaurine]",amount of compound the formulation can hold,1% AA-1 formulation,about 2%
same,amount of compound the formulation can hold,2% AA-1 formulation,about 3.5%
